Results as given in patent US12637461B2, “Compounds for the activation of AMPK” (PFIZER INC., priority 2022, dated 2026).

Target: T1, human AMPK α2β2γ3 (Homo sapiens, UniProt O43741+P54646+Q9UGI9)
T1 construct: expressed in transfected cells; host or cells: HEK293AD cells, MaxCyte bulk electroporation
Assay: Primary cellular assay: γ3 associated phospho-Thr172 AMPK detection (custom pAMPK Surefire AlphaLISA) in α2β2γ3 bulk transiently transfected HEK293 cells
Assay type: cell-based
Details: activation of human AMPK α2β2γ3 (γ3 pThr172 AMPK signal) in transiently transfected HEK293 cells, 20 minutes compound incubation; for Emax: 20 min, read-out: Assay GMean Asy. Max (%); for EC50: geometric mean EC50, read-out: Assay GMean EC50
Experimental: Primary Cellular Assay—γ3 Associated Phospho-Thr172 AMPK Detection in α2β2γ3 Bulk Transiently Transfected HEK293 Cells
The cellular potencies of the compounds were evaluated using a custom pAMPK Surefire AlphaLISA designed to assess γ3 associated phospho-Thr172 AMPK and modulation by small molecules in AMPK α2β2γ3 transiently transfected HEK293 cells.
A pAMPK Surefire AlphaLISA (PE-ASLU-PAMPK) assay available through Perkin Elmer was modified to selectively assess γ3 pThr172 AMPK content (as opposed to total pThr172 AMPK) by labeling a γ3 antibody with a CaptSure™ tag and substituting it for the total α1c/α2 AMPK labeled antibodies in the kit. In the modified assay, the overall abundance of γ3 AMPK is recognized by the CaptSure γ3 antibody and the phosphorylated AMPK is recognized by biotinylated pThr172 antibody. Subsequent reactivity with streptavitin donor beads and anti CaptSure conjugated acceptor beads brings the molecules into close proximity. Upon excitation at 680 nm, the donor bead converts ambient oxygen to a more excited singlet state which reacts with the acceptor bead and emits light at 520 to 620 nm. The intensity of the signal is proportional to the level of γ3 associated pThr172 AMPK phosphorylation.
In short, AMPK-α2+β2+γ3 MaxCyte bulk-transfected HEK293AD cells were thawed in growth media (DMEM High glucose+10% FBS) in a collagen-coated T150 flask and the cells were allowed to adhere and grow overnight in a 37° C. incubator. The following day, the cells were harvested and resuspended in plating medium (DMEM Low glucose+10% FBS) at a concentration of 100,000 cells per mL and 50 μL of this cell suspension was added to all wells of a 384-well plate using a Multidrop Combi. The cells were allowed to adhere and grow for 2 days in a 37° C. incubator. On assay day, compounds were diluted in 100% dimethyl sulfoxide (DMSO) in a 11 dose, half log dilution scheme and spotted in the cell plates at 1000× the final concentration. Compound incubations were performed in plating media for 20 minutes. Cells were washed with PBS, lysed and the signal was generated by subsequent additions of RB1 reagent from the kit, 1:1000 CaptSure γ3 labeled antibody in 1× immunoassay buffer, Anti-CaptSure acceptor beads and Streptavitin donor beads at final concentration of […]. The γ3 pThr172 AMPK signal was developed using EnVision™ multilabel reader (Perkin Elmer) using Alphascreen settings. The fluorescence emission was used to calculate the % effect relative to the HPE (30 μM) and ZPE (DMSO). EC50 curves were generated with the ActivityBase software using the XLfit model 205 to determine EC50 and Emax values.
For screening purposes, bulk AMPK-α2+β2+γ3 MaxCyte bulk transfection into HEK293AD cells were generated to support SAR screening as follows.
HEK293AD cells were seeded into 10 flasks at 2.7×10^7 cells per flask. The following day 12 mL of Trypl E dissociation reagent were added to each flask to lift the cells and the cells were then spun at 300×g for 5 minutes. Cells were washed once in MaxCyte EP buffer and then resuspended in MaxCyte EP buffer at 1×10^8 cells per mL. For transfection, 500×10^6 cells in 500 μl MaxCyte EP buffer were placed in a CL1.1 Processing Assembly (electroporation cell) with 1 mg/mL ([…]) of each of the plasmids pcDNA3.1(+)-human AMPK alpha 2, pcDNA3.1(+)-human AMPK beta 2 and pcDNA3.1(+)-human AMPK gamma 3 and the electroporation was carried out on the MaxCyte STX using the HEK293 electroporation protocol. Following electroporation, cells were transferred to a T175 flask containing growth medium (DMEM High glucose+10% FBS) and allowed to recover for 25 minutes, then the cells were resuspended to final volume of 900 mL and distributed into 6XT175 flasks and allowed to adhere and grow overnight in a 37° C. incubator. […]

[1] = geometric mean of the asymptotic max

T1 sequence (P54646 whole entry): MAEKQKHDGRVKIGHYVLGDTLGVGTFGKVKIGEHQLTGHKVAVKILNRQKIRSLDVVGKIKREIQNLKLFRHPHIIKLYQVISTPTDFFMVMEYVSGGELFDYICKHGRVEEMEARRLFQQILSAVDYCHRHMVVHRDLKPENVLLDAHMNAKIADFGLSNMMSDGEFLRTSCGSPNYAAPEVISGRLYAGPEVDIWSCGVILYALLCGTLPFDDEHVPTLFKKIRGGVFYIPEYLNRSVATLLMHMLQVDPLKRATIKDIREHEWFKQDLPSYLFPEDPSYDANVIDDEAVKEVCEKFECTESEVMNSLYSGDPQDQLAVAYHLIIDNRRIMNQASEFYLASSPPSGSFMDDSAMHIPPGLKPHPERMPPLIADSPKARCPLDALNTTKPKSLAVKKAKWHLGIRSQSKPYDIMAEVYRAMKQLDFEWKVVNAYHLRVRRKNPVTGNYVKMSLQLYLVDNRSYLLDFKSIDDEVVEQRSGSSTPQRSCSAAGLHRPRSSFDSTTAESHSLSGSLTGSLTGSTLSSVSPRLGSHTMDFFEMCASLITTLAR
T1 sequence (O43741 whole entry): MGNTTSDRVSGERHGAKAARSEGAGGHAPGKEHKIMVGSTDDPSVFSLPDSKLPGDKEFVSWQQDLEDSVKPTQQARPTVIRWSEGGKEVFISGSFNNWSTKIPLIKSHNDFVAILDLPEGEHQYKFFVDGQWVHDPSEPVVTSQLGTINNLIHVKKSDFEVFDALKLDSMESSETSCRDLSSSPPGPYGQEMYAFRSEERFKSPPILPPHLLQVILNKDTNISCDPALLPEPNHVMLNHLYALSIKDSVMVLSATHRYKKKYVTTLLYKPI
T1 sequence (Q9UGI9 whole entry): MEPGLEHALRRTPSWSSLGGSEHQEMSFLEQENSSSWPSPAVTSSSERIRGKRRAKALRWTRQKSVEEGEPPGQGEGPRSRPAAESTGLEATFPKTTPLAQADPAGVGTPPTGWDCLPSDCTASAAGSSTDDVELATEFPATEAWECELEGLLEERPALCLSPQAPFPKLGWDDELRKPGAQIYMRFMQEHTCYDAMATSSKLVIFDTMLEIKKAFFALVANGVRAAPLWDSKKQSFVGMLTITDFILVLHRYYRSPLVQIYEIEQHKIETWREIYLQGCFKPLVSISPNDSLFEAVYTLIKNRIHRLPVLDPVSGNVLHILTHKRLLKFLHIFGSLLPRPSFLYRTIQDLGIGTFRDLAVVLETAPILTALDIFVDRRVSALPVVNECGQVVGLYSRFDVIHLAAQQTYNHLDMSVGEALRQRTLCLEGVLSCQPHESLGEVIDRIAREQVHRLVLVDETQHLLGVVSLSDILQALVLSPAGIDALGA

SMILES	Emax [1] [%]	EC50 [nM]	Assay GMean Asy. Max (%) [1] [%]
CC1(c2cccc(Cl)c2F)CN(c2ncccc2F)C(=O)c2cnc(NC3CN(C(=O)N4C[C@@H]5C[C@H]4CO5)C3)nc21 (single isomer, unassigned) [compound 88]	213	71.6	
CCN(C)C(=O)CN1CC(Nc2ncc3c(c2F)[C@@](C)(c2cccc(Cl)c2F)CN(c2nn(C)cc2F)C3=O)C1 [compound 66, 2-(3-{[(5R)-5-(3-chloro-2-fluorophenyl)-4-fluoro-7-(4-fluoro-1-methyl-1H-pyrazol-3-yl)-5-methyl-8-oxo-5,6,7,8-tetrahydro-2,7-naphthyridin-3-yl]amino}azetidin-1-yl)-N-ethyl-N-methylacetamide]	88.8	29.8	
Cn1cc(F)c(N2C[C@](C)(c3cccc(Cl)c3F)c3c(cnc(NC4CN(C(=O)CN[C@@H]5CCOC5)C4)c3F)C2=O)n1 [compound 76, (4R)-4-(3-chloro-2-fluorophenyl)-5-fluoro-2-(4-fluoro-1-methyl-1H-pyrazol-3-yl)-4-methyl-6-{[1-{{[(3R)-oxolan-3-yl]amino}acetyl)azetidin-3-yl]amino}-3,4-dihydro-2,7-naphthyridin-1(2H)-one]	59.3	56.6	
CNCc1ccc(N2CC(C)(c3cccc(Cl)c3F)c3nc(NC4CN(C(=O)C5CC5F)C4)ncc3C2=O)cc1F [compound 80, 8-(3-chloro-2-fluorophenyl)-2-({1-[(1S,2S)-2-fluorocyclopropane-1-carbonyl]azetidin-3-yl}amino)-6-{3-fluoro-4-[(methylamino)methyl]phenyl}-8-methyl-7,8-dihydropyrido[4,3-d]pyrimidin-5(6H)-one, from P11 (ENANT-2)]	154	2500	
COCC(C)(O)C(=O)N1CC(Nc2ncc3c(c2F)C(C)(c2cccc(Cl)c2F)CN(c2nn(C)cc2F)C3=O)C1 (single isomer, unassigned) [compound 47]		264	105
COC[C@H](C)NC(=O)N1CC(Nc2ncc3c(n2)C(C)(c2cccc(Cl)c2F)CN(c2ncccc2F)C3=O)C1 (single isomer, unassigned) [compound 85]	141	162	
C[C@]1(c2cccc(Cl)c2F)CN(c2cc(OC(F)F)ccn2)C(=O)c2cnc(NC3CN(C(=O)[C@@H]4C[C@@H]4F)C3)c(F)c21 [compound 55, (4R)-4-(3-chloro-2-fluorophenyl)-2-[4-(difluoromethoxy)pyridin-2-yl]-5-fluoro-6-({1-[(1S,2S)-2-fluorocyclopropane-1-carbonyl]azetidin-3-yl}amino)-4-methyl-3,4-dihydro-2,7-naphthyridin-1(2H)-one]	30.9	24	
Cc1c(F)ccc(C2(C)CN(c3ncccc3F)C(=O)c3cnc(NC4CN(C(=O)C5(O)CC5)C4)c(F)c32)c1F (stereo not shown) [compound 106, 4-(2,4-difluoro-3-methylphenyl)-5-fluoro-2-(3-fluoropyridin-2-yl)-6-{[1-(1-hydroxycyclopropane-1-carbonyl)azetidin-3-yl]amino}-4-methyl-3,4-dihydro-2,7-naphthyridin-1(2H)-one, from P5 (ENANT-2)]	70.5	33.9	
Cn1cc(F)c(N2C[C@](C)(c3cccc(Cl)c3F)c3c(cnc(NC4CN(CC(=O)N5CCCC5)C4)c3F)C2=O)n1 [compound 65, (4R)-4-(3-chloro-2-fluorophenyl)-5-fluoro-2-(4-fluoro-1-methyl-1H-pyrazol-3-yl)-4-methyl-6-({1-[2-oxo-2-(pyrrolidin-1-yl)ethyl]azetidin-3-yl}amino)-3,4-dihydro-2,7-naphthyridin-1(2H)-one]	83.4	55.1	
C[C@]1(c2cccc(Cl)c2F)CN(c2n[nH]cc2F)C(=O)c2cnc(NC3CN(C(=O)[C@@H]4C[C@@H]4F)C3)c(F)c21 [Example 112, (4R)-4-(3-chloro-2-fluorophenyl)-5-fluoro-6-({1-[(1S,2S)-2-fluorocyclopropane-1-carbonyl]azetidin-3-yl}amino)-2-(4-fluoro-1H-pyrazol-3-yl)-4-methyl-3,4-dihydro-2,7-naphthyridin-1(2H)-one]	72.1	899	
CC1(c2cccc(Cl)c2F)CN(c2ncccc2F)C(=O)c2cnc(NC3CN(C(=O)N4C[C@H]5C[C@@H]4[C@@H](O)C5)C3)nc21 (single isomer, unassigned) [Example 32]	173	219	

Further lines, results first:

Emax [1] [%]	EC50 [nM]	Assay GMean Asy. Max (%) [1] [%]	SMILES
71.4	110		C[C@]1(c2cccc(Cl)c2F)CN(c2ccc(CCO)cn2)C(=O)c2cnc(NC3CN(C(=O)[C@@H]4C[C@@H]4F)C3)c(F)c21 [compound 48, (4R)-4-(3-chloro-2-fluorophenyl)-5-fluoro-6-({1-[(1S,2S)-2-fluorocyclopropane-1-carbonyl]azetidin-3-yl}amino)-2-[5-(2-hydroxyethyl)pyridin-2-yl]-4-methyl-3,4-dihydro-2,7-naphthyridin-1(2H)-one]
74.6	113		Cn1cncc1C(=O)N1CC(Nc2ncc3c(c2F)[C@@](C)(c2cccc(Cl)c2F)CN(c2ccc(CO)cn2)C3=O)C1 [compound 58, (4R)-4-(3-chloro-2-fluorophenyl)-5-fluoro-2-[5-(hydroxymethyl)pyridin-2-yl]-4-methyl-6-{[1-(1-methyl-1H-imidazole-5-carbonyl)azetidin-3-yl]amino}-3,4-dihydro-2,7-naphthyridin-1(2H)-one]
63.7	233		C[C@]1(c2cccc(Cl)c2F)CN(c2ccc(OC(F)F)cn2)C(=O)c2cnc(NC3CN(C(=O)[C@@H]4C[C@@H]4F)C3)c(F)c21 [compound 50, (4R)-4-(3-chloro-2-fluorophenyl)-2-[5-(difluoromethoxy)pyridin-2-yl]-5-fluoro-6-({1-[(1S,2S)-2-fluorocyclopropane-1-carbonyl]azetidin-3-yl}amino)-4-methyl-3,4-dihydro-2,7-naphthyridin-1(2H)-one]
64.9	27.7		C[C@]1(c2cccc(Cl)c2F)CN(c2ccccn2)C(=O)c2cnc(NC3CN(C(=O)[C@@H]4C[C@@H]4F)C3)c(F)c21 [Example 5, (4R)-4-(3-chloro-2-fluorophenyl)-5-fluoro-6-({1-[(1S,2S)-2-fluorocyclopropane-1-carbonyl]azetidin-3-yl}amino)-4-methyl-2-(pyridin-2-yl)-3,4-dihydro-2,7-naphthyridin-1(2H)-one]
113	27.5		CC1(c2ccc(F)c(Cl)c2F)CN(c2ccc(CO)cn2)C(=O)c2cnc(NC3CN(C(=O)N4C[C@@H]5C[C@H]4CO5)C3)c(F)c21 (single isomer, unassigned) [compound 103]
91.2	68.7		Cn1cc(F)c(N2C[C@](C)(c3cccc(Cl)c3F)c3c(cnc(NC4CN(C(=O)[C@@H]5CC5(F)F)C4)c3F)C2=O)n1 [compound 39, (4R)-4-(3-chloro-2-fluorophenyl)-6-({1-[(1S)-2,2-difluorocyclopropane-1-carbonyl]azetidin-3-yl}amino)-5-fluoro-2-(4-fluoro-1-methyl-1H-pyrazol-3-yl)-4-methyl-3,4-dihydro-2,7-naphthyridin-1(2H)-one]
